This is an account of results in patent US10617735B2, “Methods and compositions for preserving retinal ganglion cells” (Massachusetts Eye and Ear Infirmary, priority 2010, dated 2020).

Format in all cases: in vivo, mouse
Assay [1] relates to caspase-8, caspase-9 and caspase-3. The experiment in a line: Caspase-8, caspase-9 and caspase-3 activities in the retina after ON injury (commercial kit). The following applies: one day after ON injury, intravitreal Z-VAD. From the text:
(§1) Two mouse models of RGC death were utilized: optic nerve (ON) injury and N-methyl-D-aspartate (NMDA) retinal excitotoxicity. ON injury leads to RGC death as a result of primary damage to the axons, with its ensuing disruption of retrograde axonal transport (Libby et al., (2005) PLOS GENET 1:17-26) and is used as an RGC death model. In the ON injury model, mice were anesthetized and subjected to severe crush injury at 1-2 mm distance from the eyeball for 15 seconds using cross-action forceps taking special care not to interfere with the blood supply (Levkovitch-Verbin, (2004) EYE 18:1066-1074). Injured mice were randomly divided into 4 groups for treatment: vehicle group (0.5% DMSO and 0.8% cyclodextrin in PBS, n=6), ZVAD group (300 n=6), Nec-1 group (4 mM, n=6), and ZVAD plus Nec-1 group (n=6). Soon after injury, each group received an intravitreal injection (2 μl) with the respective compounds. […]
In human glaucoma, RGC death has been attributed mainly to apoptosis (Kerrigan et al., (1997), Tatton et al., (2001)). […] The activities of caspase-8, caspase-9 and caspase-3 were measured using a commercially available kit according to the manufacturer's instructions (APT171/131/139; Millipore, Billerica, Mass.).

The subject of assay [2] is retinal ganglion cells (RGCs). The experiment in a line: Transmission electron microscopy (TEM) quantification of apoptotic and necrotic RGC death after ON injury. The method, then:
In addition, the morphology of RGC death was assessed by transmission electron microscopy (TEM) as previously described (Trichonas et al., (2010) PROC NATL ACAD SCI USA)). Specifically, the eyes were enucleated, and the posterior segments were fixed in 2.5% glutaraldehyde and 2% paraformaldehyde in 0.1 M cacodylate buffer with 0.08 M CaCl2 at 4° C. The eyes were post-fixed for 1.5 hours in 2% aqueous OsO4, dehydrated in ethanol and water, and embedded in EPON. Ultrathin sections were cut from blocks and stained with saturated, aqueous uranyl acetate and Sato's lead stain. […] More than 50 RGCs per eye were photographed and subjected to quantification of cell death in a masked fashion. RGCs showing cellular shrinkage and nuclear condensation were defined as apoptotic cells, and RGCs associated with cellular and organelle swelling and discontinuities in nuclear and plasma membrane were defined as necrotic cells. Electron dense granular materials were labeled simply as end-stage unclassified cell death. Autophagosome was defined as a double- or multi-membraned structure containing cytoplasmic material and/or organelles, and autolysosome was defined as cytoplasmic vesicle containing electron dense degraded material, as previously described (Eskelinen, 2008).
RGC death was categorized into apoptosis, necrosis and unclassified end-stage of death, as previously described (Trichonas et al., (2010) PROC NATL ACAD SCI USA). […] Co-administration of ZVAD and Nec-1 led to a substantial decrease of both apoptotic and necrotic RGC death (% apoptotic cells: 4.2±5.1%, necrotic cells: 9.8±6.6%, unclassified: 1.8±1.8%, P<0.01; FIGS. 4C and 4D).
To identify the RGC death mode seen after ON injury transmission electron microscopy (TEM) studies was performed as previously described. RGCs that were unable to be classified were defined as end-stage cell death/unclassified. […] RGCs contained tubular sacs of rough endoplasmic reticulum (rER) surrounded by large numbers of ribosomes (Nissl bodies). Mitochondria were identified as round or oval double-membrane structures with characteristic cristae. In addition, the cytoplasm contained elements of Golgi apparatus (GA), free ribosomes and microtubules sectioned at various angles. A large round nucleus, surrounded by a double-layered nuclear membrane, contained homogeneously dispersed karyoplasm (chromatin material) and one or two electron dense nucleoli (FIG. 8A) (Saggu et al., (2010) BMC NEUROSCI 11:97)). After ON injury, RGC death through apoptosis was predominant.

Assay [3] relates to retinal ganglion cells (RGCs). The experiment in a line: Brn3b immunohistochemistry (viable RGCs) after ON injury. The following applies: RIP3−/− mice; seven days after ON injury.
Text: as §1, with “compounds. In the NMDA retinal excitotoxicity model, NMDA (2 μl of a 0.1M stock; Sigma-Aldrich) was injected intravitreously in combination with ZVAD, Nec-1, or ZVAD plus Nec-1 and mice were separated into the aforementioned 4 groups.” for “compounds.”

Where [4] appears, read: one day after ON injury, mean±SD.

SMILES strings stand for the structures. Where a SMILES comes first, the peptide text is derived from it. The star is where a group is joined. Cbz = O=C(OCc1ccccc1)*; CH2F = FC*

On to `COC(=O)CC(NC(=O)C(C)NC(=O)C(NC(=O)OCc1ccccc1)C(C)C)C(=O)CF` (stereo not drawn) [Z-VAD, Benzyloxycarbonyl-Val-Ala-Asp(OMe)-fluoromethylketone] (Cbz-Val-Ala-Asp(OMe)-CH2F; configuration not given here), for which the “decrease of the activities of the caspases” value in assay [1] is 70%. Besides, the “mode of RGC death, apoptotic versus necrotic (TEM)” value in assay [2] (after ON injury) was “blocked apoptotic cell death and sensitized cells to necrotic cell death”. In addition, in assay [2] (setting [4]), the “apoptotic cells (RGC death, TEM)” value was found to be 5.6±3.4%; the “necrotic cells (RGC death, TEM)” value is recorded as 30.7±4.9%; the “unclassified end-stage of death (TEM)” value is listed as 3.4±2.3%. Moreover, in assay [3], the “number of Brn3b positive cells” value is on record as “further enhanced”.
